In US12589156B2, “Benzimidazole and benzimidazolone based protac compounds for the targeted degradation of leucine rich repeat kinase 2 (LRRK2)” (Arvinas Operations, Inc., priority 2023, dated 2026):

Molecular target: T1, WT LRRK2 (Homo sapiens, UniProt Q5S007)
T1 construct: endogenous in cells; host or cells: HEK293 (endogenous LRRK2 gene knock-in tagged with HiBit; stably expressing CMV-driven firefly luciferase)
Assay: LRRK2 HiBit degradation assay (Nano-Glo Dual Luciferase) in HEK293 cells with HiBit-tagged endogenous LRRK2
Format: cell-based
Conditions: HiBit-tagged LRRK2 in HEK293 cells, 24 hours treatment; for Dmax: maximal degradation; for DC50: starting concentration 1 μM
From the text: Biological Assays Exemplary Assay for Testing LRRK2 Degradation Driven by Exemplary Hetero-Bifunctional Compounds Designed to Target LRRK2
The assay measures the degradation of LRRK2 in cells where the C-terminus (3′) of the endogenous gene has been tagged with a HiBit sequence in HEK293 cells. The cells also express firefly lucisferase, expressed from a Cytomegalovirus promoter and introduced into the HiBit tagged cells and stably expressed. The Nano-Glo® Dual Luciferase Reporter Assay System (Promega™, Madison, WI) was utilized.
Day 1—Preparation of Compound and Assay Plates. Two sets of plates were prepared: a triplicate set for the HiBit assay in white 384-well plates and a triplicate set of plate in black 384-well plates for the Alamar Blue cell viability assay. Briefly, the growth media (DMEM+Glutamax-10% fetal bovine serum-1% Penicillin-Streptomicin) from two T128 flasks was aspirated from the flasks. Cells were washed with Dulbecco's Phosphate Buffered Saline (dPBS) and aspirated. Trypsin (3 mL per flask) was added and the flasks were incubated for 2-3 minutes.
Ten mL of OptiMEM—10% fetal bovine-1% penicillin-streptomycin (hereinafter, “OptiMEM media”) was added to the flask and the cells and transferred to a 50 ml conical tube. A cell count (25 ul of cell into Effendorf vial+25 ul of Trypan Blue Stain) was performed and the cell density adjusted to 15,000 cell/45 μl/well (3.33×10^5/mL) in OptiMEM media.
Forty-five microliters of the cell suspension (15,000 cells) was aliquoted to each well of the white 384-well plate. The plates incubated at room temperature for 10 minutes before being placed in the 37° C.+5% CO2 incubator overnight
Day 2—Compound Treatment. Exemplary compounds were prepared at a 1 mM starting concentration and 1:3 serial dilution for 11 points CRC prepared and stored in the freezer. The Master Compound Plate was thawed overnight at room temperature. DMSO (20 μL) was added into column 24 of the Master Compound Plate for negative control and 20 μL of 300 μM of Compound 4 in column 23 as positive control.
Intermediate Compound Plate with 4% DMSO in OptiMEM Media. DMSO was added to warm OptiMEM media to achieve a 4% DMSO solution (approximately 50 mL/plate). One-hundred microliters of the OptiMEM-4% DMSO was aliquoted to each well of 384-Well Deep Well Microplates.
The Master Compound Plate and the Intermediate Compound Plate were spun down.
One microliter of compound from the Master Compound Plate was transferred into the Intermediate plate (a 1:100 dilution). The diluted mixture was mixed and 5 μL transferred into the assay plate (a 1:10 dilution) for the final starting concentration of 1 μM. The Treated Assay plates were incubated for 24 hours at 37° C.+5% CO2. The Master Compound Plate was sealed and store at room temperature for a second run that was performed within a week.
One set of white assay plates was warmed to room temperature (45 minute).
The One Glo luciferase mixture was prepared. The media from white 384-well assay plates was aspirated. Twenty-five μL of the One Glo luciferase mixture was added to each well of the assay plates. The plates were incubated on the bench (room temperature) for 45 minutes, including 10 minutes of shaking at 700 rpm. The luminescence of each plate was read on a plate reader.
1:100 DLR substrate and 1:100 LgBiT Protein dilution were added to the Promega Stop and Glo buffer and mixed just before addition to assay plates. Twenty-five microliters of Stop and Glo mixture was added to each well. Assay plates incubated for at least 45 minutes, including 10 minutes of shaking at 700 rpm. The luminescence of each plate was read on a plate reader.
Analysis of LRRK2 HiBit Screening assays. As mentioned above, plates were run in triplicate and the assay repeated twice (total of 6 replicate for exemplary compounds). For each treatment, measurements were taken for firefly luciferase for cell number, cell viability (Alamar Blue), and Nanoluc for the LRRK2-HiBit quantification. […]

T1 sequence (Q5S007 whole entry): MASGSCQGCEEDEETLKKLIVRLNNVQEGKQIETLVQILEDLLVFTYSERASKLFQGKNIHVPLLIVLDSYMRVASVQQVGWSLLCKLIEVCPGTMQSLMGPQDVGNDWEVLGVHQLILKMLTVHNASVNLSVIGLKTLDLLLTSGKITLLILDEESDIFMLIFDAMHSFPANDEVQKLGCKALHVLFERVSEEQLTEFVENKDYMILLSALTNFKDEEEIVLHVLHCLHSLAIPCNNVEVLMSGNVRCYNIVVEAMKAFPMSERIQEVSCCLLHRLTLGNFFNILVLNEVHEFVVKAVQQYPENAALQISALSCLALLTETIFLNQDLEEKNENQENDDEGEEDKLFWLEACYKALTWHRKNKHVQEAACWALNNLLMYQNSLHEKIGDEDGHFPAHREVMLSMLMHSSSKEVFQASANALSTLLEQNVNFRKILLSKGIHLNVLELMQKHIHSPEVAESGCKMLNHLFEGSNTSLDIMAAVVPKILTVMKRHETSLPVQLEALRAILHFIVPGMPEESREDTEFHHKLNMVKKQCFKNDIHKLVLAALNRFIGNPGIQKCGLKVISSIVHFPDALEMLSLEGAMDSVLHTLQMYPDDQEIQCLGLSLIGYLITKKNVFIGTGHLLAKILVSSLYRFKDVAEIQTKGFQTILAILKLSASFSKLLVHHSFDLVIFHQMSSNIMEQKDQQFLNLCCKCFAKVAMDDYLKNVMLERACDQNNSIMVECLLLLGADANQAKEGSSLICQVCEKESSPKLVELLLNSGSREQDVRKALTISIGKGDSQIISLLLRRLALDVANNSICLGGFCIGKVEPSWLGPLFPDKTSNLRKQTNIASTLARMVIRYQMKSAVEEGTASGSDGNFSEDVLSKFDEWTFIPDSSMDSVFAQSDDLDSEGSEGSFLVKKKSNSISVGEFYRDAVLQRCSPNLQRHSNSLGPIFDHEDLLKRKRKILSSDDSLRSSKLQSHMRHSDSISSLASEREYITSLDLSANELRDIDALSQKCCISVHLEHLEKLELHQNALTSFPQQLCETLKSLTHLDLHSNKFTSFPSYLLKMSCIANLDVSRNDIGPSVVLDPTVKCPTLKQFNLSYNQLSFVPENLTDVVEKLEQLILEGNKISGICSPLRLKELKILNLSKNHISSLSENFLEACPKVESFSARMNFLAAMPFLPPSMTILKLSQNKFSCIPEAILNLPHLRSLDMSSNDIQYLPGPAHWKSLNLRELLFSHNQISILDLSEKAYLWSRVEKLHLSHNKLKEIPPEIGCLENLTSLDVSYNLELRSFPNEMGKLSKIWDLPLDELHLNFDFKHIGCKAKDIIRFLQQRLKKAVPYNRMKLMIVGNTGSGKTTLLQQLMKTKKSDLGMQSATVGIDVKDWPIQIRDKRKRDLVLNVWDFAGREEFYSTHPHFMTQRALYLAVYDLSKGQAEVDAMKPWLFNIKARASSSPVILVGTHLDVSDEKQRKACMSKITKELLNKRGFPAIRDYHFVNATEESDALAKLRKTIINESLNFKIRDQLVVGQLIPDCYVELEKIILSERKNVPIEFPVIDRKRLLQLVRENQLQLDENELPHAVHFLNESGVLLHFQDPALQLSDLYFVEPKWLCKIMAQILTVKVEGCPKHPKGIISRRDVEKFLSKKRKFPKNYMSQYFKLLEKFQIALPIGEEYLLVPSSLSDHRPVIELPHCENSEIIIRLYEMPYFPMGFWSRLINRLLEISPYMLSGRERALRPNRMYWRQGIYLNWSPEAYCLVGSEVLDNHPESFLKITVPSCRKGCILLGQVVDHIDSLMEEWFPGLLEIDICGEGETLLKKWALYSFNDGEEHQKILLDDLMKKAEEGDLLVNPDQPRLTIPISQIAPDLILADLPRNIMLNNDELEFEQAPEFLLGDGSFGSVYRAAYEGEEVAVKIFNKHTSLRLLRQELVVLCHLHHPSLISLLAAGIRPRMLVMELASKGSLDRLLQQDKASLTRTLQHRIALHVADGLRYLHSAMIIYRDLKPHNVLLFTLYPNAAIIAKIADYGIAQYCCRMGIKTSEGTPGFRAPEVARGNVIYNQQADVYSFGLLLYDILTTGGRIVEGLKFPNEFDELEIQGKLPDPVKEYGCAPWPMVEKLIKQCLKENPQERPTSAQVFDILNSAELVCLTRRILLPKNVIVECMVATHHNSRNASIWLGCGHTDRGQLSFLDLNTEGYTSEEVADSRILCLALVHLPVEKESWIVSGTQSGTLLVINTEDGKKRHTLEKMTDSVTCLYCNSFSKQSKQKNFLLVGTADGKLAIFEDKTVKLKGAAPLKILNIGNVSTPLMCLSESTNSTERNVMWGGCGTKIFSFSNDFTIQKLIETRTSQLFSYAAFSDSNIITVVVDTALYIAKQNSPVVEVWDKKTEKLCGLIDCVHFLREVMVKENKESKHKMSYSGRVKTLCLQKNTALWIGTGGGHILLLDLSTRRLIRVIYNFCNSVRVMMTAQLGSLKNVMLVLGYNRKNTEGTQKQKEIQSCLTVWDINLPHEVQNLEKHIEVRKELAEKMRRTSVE

Dmax (HEK293, Table 2) [%]	SMILES	DC50 (Table 2) [nM]	Dmax (Table 2) [%]
–	Cn1c(=O)n(C2CCC(=O)NC2=O)c2ccc(N3CCN(C[C@H]4C[C@H](OC5CCN(c6cc(-c7n[nH]c8cnc(OC9(C)CC9)cc78)ncn6)CC5)C4)CC3)cc21 (single isomer, unassigned) [Compound 36, rel-3-[3-methyl-2-oxo-5-(4-{[(1r,3r)-3-[(1-{6-[5-(1-methylcyclopropoxy)-1H-pyrazolo[3,4-c]pyridin-3-yl]pyrimidin-4-yl}piperidin-4-yl)oxy]cyclobutyl]methyl}piperazin-1-yl)-2,3-dihydro-1H-1,3-benzodiazol-1-yl]piperidine-2,6-dione]	0.079	60
–	Cn1c(=O)n(C2CCC(=O)NC2=O)c2ccc(C3CCN([C@H]4C[C@H](OC5CCN(c6cc(-c7n[nH]c8ccc(OC9(C)CC9)cc78)ncn6)CC5)C4)CC3)cc21 (single isomer, unassigned) [Compound 37, rel-3-(3-methyl-2-oxo-5-{1-[(1r,3r)-3-[(1-{6-[5-(1-methylcyclopropoxy)-1H-indazol-3-yl]pyrimidin-4-yl}piperidin-4-yl)oxy]cyclobutyl]piperidin-4-yl}-2,3-dihydro-1H-1,3-benzodiazol-1-yl)piperidine-2,6-dione]	0.053	64
90	Cn1c(=O)n(C2CCC(=O)NC2=O)c2cccc(N3CCC(O[C@H]4CC[C@H](CN5CCN(c6cc(-c7n[nH]c8cnc(OC9(C)CC9)cc78)ncn6)CC5)CC4)CC3)c21 (single isomer, unassigned) [Compound 46, rel-3-[3-methyl-2-oxo-4-(4-{[(1r,4r)-4-[(4-{6-[5-(1-methylcyclopropoxy)-1H-pyrazolo[3,4-c]pyridin-3-yl]pyrimidin-4-yl}piperazin-1-yl)methyl]cyclohexyl]oxy}piperidin-1-yl)-2,3-dihydro-1H-1,3-benzodiazol-1-yl]piperidine-2,6-dione]	2.1	–
55	CC(C)n1c(=O)n(C2CCC(=O)NC2=O)c2ccc(N3CCC(O[C@H]4CC[C@H](CN5CCN(c6cc(-c7n[nH]c8ccc(OC9(C)CC9)cc78)ncn6)CC5)CC4)CC3)cc21 (single isomer, unassigned) [Compound 49, rel-3-[2-oxo-3-(propan-2-yl)-5-(4-{[(1r,4r)-4-[(4-{6-[5-(1-methylcyclopropoxy)-1H-indazol-3-yl]pyrimidin-4-yl}piperazin-1-yl)methyl]cyclohexyl]oxy}piperidin-1-yl)-2,3-dihydro-1H-1,3-benzodiazol-1-yl]piperidine-2,6-dione]	0.44	–
53	CC(C)n1c(=O)n(C2CCC(=O)NC2=O)c2ccc(N3CCC(O[C@H]4CC[C@H](CN5CCN(c6cc(-c7n[nH]c8cnc(OC9(C)CC9)cc78)ncn6)CC5)CC4)CC3)cc21 (single isomer, unassigned) [Compound 52, rel-3-[2-oxo-3-(propan-2-yl)-5-(4-{[(1r,4r)-4-[(4-{6-[5-(1-methylcyclopropoxy)-1H-pyrazolo[3,4-c]pyridin-3-yl]pyrimidin-4-yl}piperazin-1-yl)methyl]cyclohexyl]oxy}piperidin-1-yl)-2,3-dihydro-1H-1,3-benzodiazol-1-yl]piperidine-2,6-dione]	0.28	–
54	CC(C)n1c(=O)n(C2CCC(=O)NC2=O)c2ccc(N3CCC(O[C@H]4CC[C@@H](CN5CCN(c6cc(-c7n[nH]c8cnc(OC9(C)CC9)cc78)ncn6)CC5)CC4)CC3)cc21 (single isomer, unassigned) [Compound 53, rel-3-[2-oxo-3-(propan-2-yl)-5-(4-{[(1r,4r)-4-[(4-{6-[5-(1-methylcyclopropoxy)-1H-pyrazolo[3,4-c]pyridin-3-yl]pyrimidin-4-yl}piperazin-1-yl)methyl]cyclohexyl]oxy}piperidin-1-yl)-2,3-dihydro-1H-1,3-benzodiazol-1-yl]piperidine-2,6-dione]	0.59	–
51	CC(C)Oc1ccc2[nH]nc(-c3cc(N4CCN(C[C@H]5CC[C@H](OC6CCN(c7ccc8c(c7)n(C(C)C)c(=O)n8C7CCC(=O)NC7=O)CC6)CC5)CC4)ncn3)c2c1 (single isomer, unassigned) [Compound 57, rel-3-[2-oxo-3-(propan-2-yl)-5-(4-{[(1r,4r)-4-[(4-{6-[5-(propan-2-yloxy)-1H-indazol-3-yl]pyrimidin-4-yl}piperazin-1-yl)methyl]cyclohexyl]oxy}piperidin-1-yl)-2,3-dihydro-1H-1,3-benzodiazol-1-yl]piperidine-2,6-dione]	0.64	–

SMILES	Dmax (HEK293, Table 2) [%]	DC50 (Table 2) [nM]	Dmax (Table 2) [%]
Cn1c(=O)n(C2CCC(=O)NC2=O)c2ccc(N3CCC(O[C@H]4C[C@H](COC5CCN(c6cc(-c7n[nH]c8cnc(OC9(C)CC9)cc78)ncn6)CC5)C4)CC3)cc21 (single isomer, unassigned) [Compound 34, rel-3-(3-methyl-2-oxo-5-{4-[(1r,3r)-3-{[(1-{6-[5-(1-methylcyclopropoxy)-1H-pyrazolo[3,4-c]pyridin-3-yl]pyrimidin-4-yl}piperidin-4-yl)oxy]methyl}cyclobutoxy]piperidin-1-yl}-2,3-dihydro-1H-1,3-benzodiazol-1-yl)piperidine-2,6-dione]	57	0.42	–
Cn1c(=O)n(C2CCC(=O)NC2=O)c2ccc(N3CCC(O[C@H]4C[C@H](CN5CCN(c6cc(-c7n[nH]c8cnc(OC9(C)CC9)cc78)ncn6)CC5)C4)CC3)cc21 (single isomer, unassigned) [Compound 35, rel-3-(3-methyl-2-oxo-5-{4-[(1r,3r)-3-[(4-{6-[5-(1-methylcyclopropoxy)-1H-pyrazolo[3,4-c]pyridin-3-yl]pyrimidin-4-yl}piperazin-1-yl)methyl]cyclobutoxy]piperidin-1-yl}-2,3-dihydro-1H-1,3-benzodiazol-1-yl)piperidine-2,6-dione]	50	0.052	–
CC(C)n1c(=O)n(C2CCC(=O)NC2=O)c2ccc(N3CCC(O[C@H]4CC[C@H](CN5CCN(c6cc(-c7n[nH]c8ccc(OC(C)(C)C)cc78)ncn6)CC5)CC4)CC3)cc21 (single isomer, unassigned) [Compound 56, rel-3-[2-oxo-3-(propan-2-yl)-5-(4-{[(1r,4r)-4-[(4-{6-[5-(tert-butoxy)-1H-indazol-3-yl]pyrimidin-4-yl}piperazin-1-yl)methyl]cyclohexyl]oxy}piperidin-1-yl)-2,3-dihydro-1H-1,3-benzodiazol-1-yl]piperidine-2,6-dione]	43	0.95	–
CC(C)n1c(=O)n(C2CCC(=O)NC2=O)c2ccc(N3CCC(O[C@H]4CC[C@H](CN5CCN(c6cc(-c7n[nH]c8cnc(OC(C)(C)C)cc78)ncn6)CC5)CC4)CC3)cc21 (single isomer, unassigned) [Compound 58, rel-3-[2-oxo-3-(propan-2-yl)-5-(4-{[(1r,4r)-4-[(4-{6-[5-(tert-butoxy)-1H-pyrazolo[3,4-c]pyridin-3-yl]pyrimidin-4-yl}piperazin-1-yl)methyl]cyclohexyl]oxy}piperidin-1-yl)-2,3-dihydro-1H-1,3-benzodiazol-1-yl]piperidine-2,6-dione]	70	33	–
